# Measurements: patent US20260042731A1, “(2,4-DICHLOROPHENOXY)ACETIC ACID ANALOGS” (CORTEVA AGRISCIENCE LLC, priority 2022, published 2026)
# Like-named read-outs stand apart in the source and are kept apart here.
# Assays:
# [1] = system: Amaranthus rudis (AMATA), tall water hemp; assay: Postemergence herbicide evaluation, growth of Amaranthus rudis (AMATA); assay type: in vivo; details: Amaranthus tuberculatus, post-emergence, percent reduction in plant size relative to untreated control, read-out: Ave. AMATA; for pest or weed control at 280 g/ha: 280 g ae/ha; for pest or weed control at 560 g/ha: 560 g ae/ha
# [2] = system: Ambrosia artemisiifolia (AMBEL), common ragweed; assay: Postemergence herbicide evaluation, growth of Ambrosia artemisiifolia (AMBEL); assay type: in vivo; details: Ambrosia artemisiifolia, post-emergence, percent reduction in plant size relative to untreated control, read-out: AVE. AMBEL; for pest or weed control at 280 g/ha: 280 g ae/ha; for pest or weed control at 560 g/ha: 560 g ae/ha
# [3] = system: Abutilon theophrasti (ABUTH), velvetleaf; assay: Postemergence herbicide evaluation, growth of Abutilon theophrasti (ABUTH); assay type: in vivo; details: Abutilon theophrasti, post-emergence, percent reduction in plant size relative to untreated control, read-out: AVE. ABUTH; for pest or weed control at 280 g/ha: 280 g ae/ha; for pest or weed control at 560 g/ha: 560 g ae/ha
# [4] = system: Chenopodium album (CHEAL), common lambsquarters; assay: Postemergence herbicide evaluation, growth of Chenopodium album (CHEAL); assay type: in vivo; details: Chenopodium album, post-emergence, percent reduction in plant size relative to untreated control, read-out: Ave. CHEAL; for pest or weed control at 280 g/ha: 280 g ae/ha; for pest or weed control at 560 g/ha: 560 g ae/ha
# [5] = system: glyphosate resistant Conyza canadensis (L.) (ERICA), horseweed; assay: Postemergence herbicide evaluation, growth of Conyza canadensis (ERICA); assay type: in vivo; details: Erigeron canadensis, post-emergence, percent reduction in plant size relative to untreated control, read-out: Ave. ERICA; for pest or weed control at 280 g/ha: 280 g ae/ha; for pest or weed control at 560 g/ha: 560 g ae/ha
# [6] = Volatility of compounds measured by thermogravimetric analysis (TGA); assay type: physicochemical
# Corn (ZEAMX) = assay: Greenhouse post-emergence mixture trials, percent visual control; assay type: in vivo; details: ZEAMX, 21 DAA
# [7] = system: Common Lambsquarters (CHEAL); assay: as above; assay type: in vivo; details: CHEAL, 21 DAA; for pest or weed control at 560 g/ha / pest or weed control at 1120 g/ha: Chenopodium album, post-emergence, 504 h, no mixing partner; for pest or weed control at 1120 g/ha: read-out: % Control
# Velvetleaf (ABUTH) = assay: as above; assay type: in vivo; details: ABUTH, 21 DAA; for pest or weed control at 560 g/ha / pest or weed control at 1120 g/ha: Abutilon theophrasti, post-emergence, 504 h, no mixing partner; for pest or weed control at 1120 g/ha: read-out: % Control
# [8] = system: weeds (ABUTH, AMATA, AMBEL, CHEAL, ERICA); assay: Postemergence herbicide evaluation, overall average % weed control across ABUTH, AMATA, AMBEL, CHEAL, ERICA; assay type: in vivo; details: post-emergence, average over the five weeds, read-out: Overall Ave % Weed Control; for pest or weed control at 280 g/ha: 280 g ae/ha; for pest or weed control at 560 g/ha: 560 g ae/ha
# [9] = Trial Bridge 2, compound 560 g ae/ha + Saflufenacil 25 g ai or ae/ha
# [10] = Trial Bridge 2, compound 560 g ae/ha + Saflufenacil 75 g ai or ae/ha
# [11] = Trial Bridge 2, compound 560 g ae/ha + Trifludimoxazin 12.5 g ai or ae/ha
# [12] = Trial Bridge 2, compound 560 g ae/ha + Trifludimoxazin 50 g ai or ae/ha
# [13] = Trial Bridge 2, compound 1120 g ae/ha + Saflufenacil 25 g ai or ae/ha
# [14] = Trial Bridge 2, compound 1120 g ae/ha + Saflufenacil 75 g ai or ae/ha
# [15] = Trial Bridge 2, compound 1120 g ae/ha + Trifludimoxazin 50 g ai or ae/ha
# [16] = Trial Bridge 2, compound 560 g ae/ha
# [17] = Trial Bridge 2, compound 1120 g ae/ha
# [18] = Trial Bridge 1, compound 560 g ae/ha + Glufosinate 600 g ai or ae/ha
smiles,measurement,setting,value
O=C(COc1ccc(Cl)cc1Cl)NNC(=O)c1ccccc1 [Compound D10],pest or weed control at 280 g/ha,"[1]; 168 h, 7 DAA",68%
same,pest or weed control at 560 g/ha,"[1]; 168 h, 7 DAA",80%
same,pest or weed control at 280 g/ha,"[1]; 336 h, 14 DAA",94%
same,pest or weed control at 560 g/ha,"[1]; 336 h, 14 DAA",96%
same,pest or weed control at 280 g/ha,"[1]; 504 h, 21 DAA",85%
same,pest or weed control at 560 g/ha,"[1]; 504 h, 21 DAA",85%
same,pest or weed control at 280 g/ha,"[2]; 168 h, 7 DAA",73%
same,pest or weed control at 560 g/ha,"[2]; 168 h, 7 DAA",83%
same,pest or weed control at 280 g/ha,"[2]; 336 h, 14 DAA",91%
same,pest or weed control at 560 g/ha,"[2]; 336 h, 14 DAA",97%
same,pest or weed control at 280 g/ha,"[2]; 504 h, 21 DAA",93%
same,pest or weed control at 560 g/ha,"[2]; 504 h, 21 DAA",100%
same,pest or weed control at 280 g/ha,"[3]; 168 h, 7 DAA",88%
same,pest or weed control at 560 g/ha,"[3]; 168 h, 7 DAA",83%
same,pest or weed control at 280 g/ha,"[3]; 336 h, 14 DAA",85%
same,pest or weed control at 560 g/ha,"[3]; 336 h, 14 DAA",96%
same,pest or weed control at 280 g/ha,"[3]; 504 h, 21 DAA",91%
same,pest or weed control at 560 g/ha,"[3]; 504 h, 21 DAA",100%
same,pest or weed control at 280 g/ha,"[4]; 168 h, 7 DAA",63%
same,pest or weed control at 560 g/ha,"[4]; 168 h, 7 DAA",65%
same,pest or weed control at 280 g/ha,"[4]; 336 h, 14 DAA",68%
same,pest or weed control at 560 g/ha,"[4]; 336 h, 14 DAA",83%
same,pest or weed control at 280 g/ha,"[4]; 504 h, 21 DAA",73%
same,pest or weed control at 560 g/ha,"[4]; 504 h, 21 DAA",85%
same,pest or weed control at 280 g/ha,"[5]; 168 h, 7 DAA",63%
same,pest or weed control at 560 g/ha,"[5]; 168 h, 7 DAA",65%
same,pest or weed control at 280 g/ha,"[5]; 336 h, 14 DAA",83%
same,pest or weed control at 560 g/ha,"[5]; 336 h, 14 DAA",88%
same,pest or weed control at 280 g/ha,"[5]; 504 h, 21 DAA",93%
same,pest or weed control at 560 g/ha,"[5]; 504 h, 21 DAA",99%
same,"TGA Data (rate of weight loss, volatility)",[6],0.3 µg/min
same,% Control,"Corn (ZEAMX); Trial Bridge 1, compound 560 g ae/ha + Glyphosate 1120 g ai or ae/ha",75%
same,% Control,"Corn (ZEAMX); Trial Bridge 1, compound 560 g ae/ha + Glyphosate 1120 g ai or ae/ha, single replicate",70%
same,% Control,"Corn (ZEAMX); Trial Bridge 1, compound 1120 g ae/ha, no mixing partner, single replicate",10%
same,plant injury at 1120 g/ha,"Corn (ZEAMX); Zea mays, post-emergence, 504 h, Trial Bridge 1, compound 1120 g ae/ha, no mixing partner, single replicate",10%
same,plant injury at 560 g/ha,"Corn (ZEAMX); Zea mays, post-emergence, 504 h, compound 560 g ae/ha, no mixing partner, Trial Bridge 3",5%
same,% Control,[7]; [9],100%
same,% Control,[7]; [10],100%
same,% Control,[7]; [11],100%
same,% Control,[7]; [12],100%
same,% Control,[7]; [13],100%
same,% Control,[7]; [14],100%
same,% Control,"[7]; Trial Bridge 2, compound 1120 g ae/ha + Trifludimoxazin 12.5 g ai or ae/ha",100%
same,% Control,[7]; [15],100%
same,% Control,"[7]; Trial Bridge 3, compound 560 g ae/ha + Sulfentrazone 130 g ai/ha",100%
same,% Control,"[7]; Trial Bridge 3, compound 560 g ae/ha + Sulfentrazone 347 g ai/ha",100%
same,% Control,"[7]; Trial Bridge 3, compound 1120 g ae/ha + Sulfentrazone 130 g ai/ha",100%
same,% Control,"[7]; Trial Bridge 3, compound 1120 g ae/ha + Sulfentrazone 347 g ai/ha",100%
same,pest or weed control at 560 g/ha,[7]; [16],95%
same,pest or weed control at 1120 g/ha,[7]; [17],95%
same,pest or weed control at 560 g/ha,"[7]; Trial Bridge 3, compound 560 g ae/ha",95%
same,pest or weed control at 1120 g/ha,"[7]; Trial Bridge 3, compound 1120 g ae/ha",100%
same,pest or weed control at 560 g/ha,"[7]; Trial Bridge 1, compound 560 g ae/ha",95%
same,pest or weed control at 1120 g/ha,"[7]; Trial Bridge 1, compound 1120 g ae/ha",95%
same,% Control,[7]; [18],100%
same,% Control,"[7]; Trial Bridge 1, compound 560 g ae/ha + Mesotrione 150 g ai or ae/ha",100%
same,% Control,"[7]; Trial Bridge 1, compound 1120 g ae/ha + Arylex 5 g ai or ae/ha",95%
same,% Control,"[7]; Trial Bridge 1, compound 1120 g ae/ha + Mesotrione 150 g ai or ae/ha",100%
same,% Control,"Velvetleaf (ABUTH); compound 1120 g ae/ha + Sulfentrazone 130 g ai/ha, Trial Bridge 3",100%
same,% Control,"Velvetleaf (ABUTH); compound 1120 g ae/ha + Sulfentrazone 347 g ai/ha, Trial Bridge 3",100%
same,pest or weed control at 560 g/ha,"Velvetleaf (ABUTH); compound 560 g ae/ha, Trial Bridge 3",85%
same,pest or weed control at 1120 g/ha,"Velvetleaf (ABUTH); compound 1120 g ae/ha, Trial Bridge 3",95%
same,pest or weed control at 560 g/ha,"Velvetleaf (ABUTH); Trial Bridge 1 Trt 2, D10 560 g ae/ha",99%
same,pest or weed control at 1120 g/ha,"Velvetleaf (ABUTH); Trial Bridge 1 Trt 3, D10 1120 g ae/ha",100%
same,pest or weed control at 560 g/ha,Velvetleaf (ABUTH); [16],100%
same,pest or weed control at 1120 g/ha,Velvetleaf (ABUTH); [17],100%
same,% Control,Velvetleaf (ABUTH); [18],100%
same,% Control,"Velvetleaf (ABUTH); Trial Bridge 1 Trt 5, D10 560 g ae/ha + diclosulam 35 g ai or ae/ha",100%
same,% Control,"Velvetleaf (ABUTH); Trial Bridge 1 Trt 6, D10 1120 g ae/ha + diclosulam 35 g ai or ae/ha",100%
same,% Control,"Velvetleaf (ABUTH); Trial Bridge 1 Trt 8, D10 560 g ae/ha + Arylex 5 g ai or ae/ha",100%
same,% Control,"Velvetleaf (ABUTH); Trial Bridge 1 Trt 9, D10 1120 g ae/ha + Arylex 5 g ai or ae/ha",100%
same,% Control,"Velvetleaf (ABUTH); Trial Bridge 1 Trt 11, D10 560 g ae/ha + Mesotrione 150 g ai or ae/ha",100%
same,% Control,"Velvetleaf (ABUTH); Trial Bridge 1 Trt 12, D10 1120 g ae/ha + Mesotrione 150 g ai or ae/ha",100%
same,% Control,"Velvetleaf (ABUTH); Trial Bridge 1 Trt 14, D10 560 g ae/ha + Glyphosate 1120 g ai or ae/ha",100%
same,% Control,"Velvetleaf (ABUTH); Trial Bridge 1 Trt 15, D10 1120 g ae/ha + Glyphosate 1120 g ai or ae/ha",100%
same,% Control,Velvetleaf (ABUTH); [9],100%
same,% Control,Velvetleaf (ABUTH); [10],100%
same,% Control,Velvetleaf (ABUTH); [11],100%
same,% Control,Velvetleaf (ABUTH); [12],100%
same,% Control,Velvetleaf (ABUTH); [13],100%
same,% Control,Velvetleaf (ABUTH); [14],100%
same,% Control,Velvetleaf (ABUTH); [15],100%
same,pest or weed control at 280 g/ha,"[8]; 168 h, 7 DAA",71%
same,pest or weed control at 560 g/ha,"[8]; 168 h, 7 DAA",75%
same,pest or weed control at 280 g/ha,"[8]; 336 h, 14 DAA",84%
same,pest or weed control at 560 g/ha,"[8]; 336 h, 14 DAA",92%
same,pest or weed control at 280 g/ha,"[8]; 504 h, 21 DAA",87%
same,pest or weed control at 560 g/ha,"[8]; 504 h, 21 DAA",94%
